Patent US20250115598A1 (Anaxis Pharma Pty Ltd, priority 2021, published 2025)

Tests used:
[1] = molecular target: endogenous MLKL in MDF (Mus musculus (Mouse), UniProt Q9D2Y4); assay: Degradation assay: endogenous MLKL in MDF (western blot); details: MDF cells, 24 h incubation with compound, MLKL adjusted for loading with GAPDH, normalized to DMSO only control, read-out: Degradation of endogenous MLKL in MDF (DC50 cell-based assay)
Method in brief: (§1)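 MDF (seeded the day before) or U937 cells were treated 24 h at 37 °C, 10% CO2 with compound at 10, 2, 0.4, 0.08 and 0.016 μM final. Endogenous MLKL was quantified by western blot (anti-MLKL 3H1), normalized to GAPDH. Percent degradation was taken relative to DMSO control.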

[2] = system: Immortalised Mouse Dermal Fibroblasts (MDFs); assay: Cellular assay: inhibition of TSI induced necroptosis, CellTitre-Glo viability; details: Mus musculus, Fibroblast; MDF, 3 hours TSI cocktail, Table 27; read-out: Inhibition of TSI-induced necroptosis (IC50 cell-based assay) in MDF
Method in brief: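 Immortalised mouse dermal fibroblasts (2200 cells/well) pretreated 30 min with compound, 10-point 1:3 series from 36 μM, 0.3% DMSO. Then 3 h at 37° C. with TNF (100 ng/ml), Smac mimetic (500 nM) and IDN-6556 (10 μM). CellTiter-Glo luminescence normalised to DMSO (100%) and DMSO+TSI (0%); IC50 from 4-parameter logistic fit.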

[3] = molecular target: endogenous MLKL in U937 (Homo sapiens (Human), UniProt Q8NB16); assay: Degradation assay: endogenous MLKL in U937 (western blot); details: U937, 24 h incubation, read-out: Degradation of endogenous MLKL in U937 (DC50 cell-based assay)
Method in brief: as §1

[4] = molecular target: human MLKL (full length) (Homo sapiens (Human), UniProt Q8NB16); assay: KINOMEscan binding assay, human MLKL (full length); details: hMLKL, Table 25; read-out: MLKL (KD)
Method in brief: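 Assay principle: test compound competes with immobilized bead ligand for kinase; kinase retained, then eluted, is counted by qPCR. Conditions were 1% DMSO final with 11 compound concentrations in 3-fold steps, 30,000 nM top for most. The Hill equation with slope −1 gave Kd.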

Sequence of human MLKL (full length) (Q8NB16 whole entry): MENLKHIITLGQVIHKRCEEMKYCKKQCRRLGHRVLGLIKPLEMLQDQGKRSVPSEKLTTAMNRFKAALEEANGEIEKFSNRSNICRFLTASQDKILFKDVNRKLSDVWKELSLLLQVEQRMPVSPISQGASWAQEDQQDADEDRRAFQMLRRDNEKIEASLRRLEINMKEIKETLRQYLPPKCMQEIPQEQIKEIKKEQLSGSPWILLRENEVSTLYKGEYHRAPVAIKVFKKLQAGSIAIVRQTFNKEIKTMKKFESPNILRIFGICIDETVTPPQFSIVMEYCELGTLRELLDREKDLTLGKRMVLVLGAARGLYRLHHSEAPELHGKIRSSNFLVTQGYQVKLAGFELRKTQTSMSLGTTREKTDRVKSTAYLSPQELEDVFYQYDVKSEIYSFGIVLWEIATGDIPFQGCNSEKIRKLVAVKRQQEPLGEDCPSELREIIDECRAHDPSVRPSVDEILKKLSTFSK
Sequence of endogenous MLKL in U937 (Q8NB16 whole entry): as above
Sequence of endogenous MLKL in MDF (Q9D2Y4 whole entry): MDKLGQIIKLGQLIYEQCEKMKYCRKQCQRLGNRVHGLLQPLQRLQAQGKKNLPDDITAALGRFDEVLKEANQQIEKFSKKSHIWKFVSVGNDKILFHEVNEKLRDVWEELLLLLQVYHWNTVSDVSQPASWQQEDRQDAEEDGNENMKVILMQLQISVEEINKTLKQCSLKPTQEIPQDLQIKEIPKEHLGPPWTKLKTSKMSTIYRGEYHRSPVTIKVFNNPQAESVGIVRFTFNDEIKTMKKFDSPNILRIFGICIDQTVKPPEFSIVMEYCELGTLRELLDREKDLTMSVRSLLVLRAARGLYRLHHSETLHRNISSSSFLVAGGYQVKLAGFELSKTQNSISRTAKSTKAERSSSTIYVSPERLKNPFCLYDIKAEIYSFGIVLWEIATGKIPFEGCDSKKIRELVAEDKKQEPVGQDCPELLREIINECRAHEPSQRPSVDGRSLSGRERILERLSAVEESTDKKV

C[C@H](Oc1cc(-c2nn(C)c3c(-c4cnn(C5CCN(C(=O)[C@H]6C[C@H](Nc7cccc8c7C(=O)N(C7CCC(=O)NC7=O)C8=O)C6)CC5)c4)cnc(N)c23)ccc1NS(=O)(=O)C(F)F)c1ccc(F)cc1 (stereo partly drawn) [Compound 1047, N-{4-[4-amino-1-methyl-7-(1-{1-[(trans)-3-{[2-(2,6-dioxopiperidin-3-yl)-1,3-dioxo-2,3-dihydro-1H-isoindol-4-yl]amino}cyclobutanecarbonyl]piperidin-4-yl}-1H-pyrazol-4-yl)-1H-pyrazolo[4,3-c]pyridin-3-yl]-2-[(1 S)-1-(4-fluorophenyl)ethoxy]phenyl}-1,1-difluoromethanesulfonamide]
DC50 [1]: < 1000 nM | IC50 [2]: < 1000 nM | DC50 [3]: < 1000 nM | Kd [4]: < 10 nM

C[C@H](Oc1cc(-c2nn(C)c3c(-c4cnn(C5CCN(CC6CCN(c7cccc8c7C(=O)N(C7CCC(=O)NC7=O)C8=O)CC6)CC5)c4)cnc(N)c23)ccc1NS(=O)(=O)C(F)F)c1ccc(F)cc1 (stereo partly drawn) [Compound 1079, N-[4-(4-amino-7-{1-[1-({1-[2-(2,6-dioxopiperidin-3-yl)-1,3-dioxo-2,3-dihydro-1H-isoindol-4-yl]piperidin-4-yl}methyl)piperidin-4-yl]-1H-pyrazol-4-yl}-1-methyl-1H-pyrazolo[4,3-c]pyridin-3-yl)-2-[(1S)-1-(4-fluorophenyl)ethoxy]phenyl]-1,1-difluoromethane-sulfonamide]
DC50 [1]: < 1000 nM | IC50 [2]: < 1000 nM | DC50 [3]: < 1000 nM | Kd [4]: < 10 nM

C[C@H](Oc1cc(-c2nn(C)c3c(-c4cnn(C5CCN(C(=O)c6ccc(CNc7cccc8c7C(=O)N(C7CCC(=O)NC7=O)C8=O)cc6)CC5)c4)cnc(N)c23)ccc1NS(=O)(=O)C(F)F)c1ccc(F)cc1 (stereo partly drawn) [Compound 1093, N-{4-[4-amino-7-(1-{1-[4-({[2-(2,6-dioxopiperidin-3-yl)-1,3-dioxo-2,3-dihydro-1H-isoindol-4-yl]amino}methyl)benzoyl]piperidin-4-yl}-1H-pyrazol-4-yl)-1-methyl-1H-pyrazolo[4,3-c]pyridin-3-yl]-2-[(1S)-1-(4-fluorophenyl)ethoxy]phenyl}-1,1-difluoromethanesulfonamide]
DC50 [1]: < 1000 nM | IC50 [2]: < 1000 nM | DC50 [3]: < 1000 nM | Kd [4]: 10 to 1000 nM

Cc1ncsc1-c1ccc(CNC(=O)[C@@H]2C[C@@H](O)CN2C(=O)[C@@H](NC(=O)CCCCCOc2ccc(-c3cnc(N)c4c(-c5ccc(NS(=O)(=O)C(F)F)c(O[C@@H](C)c6ccc(F)cc6)c5)nn(C)c34)cc2)C(C)(C)C)cc1 [Compound 1042, (2S,4R)-1-[(2S)-2-[6-(4-{4-amino-3-[4-(difluoromethanesulfonamido)-3-[(1S)-1-(4-fluorophenyl)ethoxy]phenyl]-1-methyl-1H-pyrazolo[4,3-c]pyridin-7-yl}phenoxy)hexanamido]-3,3-dimethylbutanoyl]-4-hydroxy-N-{[4-(4-methyl-1,3-thiazol-5-yl)phenyl]methyl}pyrrolidine-2-carboxamide]
DC50 [1]: < 1000 nM | IC50 [2]: 1000 to 10000 nM | DC50 [3]: < 1000 nM | Kd [4]: 10 to 1000 nM

Cn1nc(-c2ccc(NS(=O)(=O)C(F)F)c(F)c2)c2c(N)ncc(-c3cnn(C4CCN(Cc5cccc(CNc6cccc7c6C(=O)N(C6CCC(=O)NC6=O)C7=O)c5)CC4)c3)c21 (stereo not drawn) [Compound 1122, N-(4-{4-amino-7-[1-(1-{[3-({[2-(2,6-dioxopiperidin-3-yl)-1,3-dioxo-2,3-dihydro-1H-isoindol-4-yl]amino}methyl)phenyl]methyl}piperidin-4-yl)-1H-pyrazol-4-yl]-1-methyl-1H-pyrazolo[4,3-c]pyridin-3-yl}-2-fluorophenyl)-1,1-difluoromethanesulfonamide]
DC50 [1]: 1000 to 10000 nM | IC50 [2]: 1000 to 10000 nM | DC50 [3]: < 1000 nM | Kd [4]: < 10 nM

C[C@H](Oc1cc(-c2nn(C)c3c(-c4cnn(C5CCN(C(=O)C6CC7(CCN(c8cccc9c8C(=O)N(C8CCC(=O)NC8=O)C9=O)CC7)C6)CC5)c4)cnc(N)c23)ccc1NS(=O)(=O)C(F)F)c1ccc(F)cc1 (stereo partly drawn) [Compound 1069, N-(4-{4-amino-7-[1-(1-{7-[2-(2,6-dioxopiperidin-3-yl)-1,3-dioxo-2,3-dihydro-1H-isoindol-4-yl]-7-azaspiro[3.5]nonane-2-carbonyl}piperidin-4-yl)-1H-pyrazol-4-yl]-1-methyl-1H-pyrazolo[4,3-c]pyridin-3-yl}-2-[(1S)-1-(4-fluorophenyl)ethoxy]phenyl)-1,1-difluoromethanesulfonamide]
DC50 [1]: < 1000 nM | IC50 [2]: < 1000 nM | DC50 [3]: < 1000 nM | Kd [4]: 10 to 1000 nM

C[C@H](Oc1cc(-c2nn(C)c3c(-c4cnn(C5CCN(C(=O)COC6CCN(c7cccc8c7C(=O)N(C7CCC(=O)NC7=O)C8=O)CC6)CC5)c4)cnc(N)c23)ccc1NS(=O)(=O)C(F)F)c1ccc(F)cc1 (stereo partly drawn) [Compound 1072, N-{4-[4-amino-7-(1-{1-[2-({1-[2-(2,6-dioxopiperidin-3-yl)-1,3-dioxo-2,3-dihydro-1H-isoindol-4-yl]piperidin-4-yl}oxy)acetyl]piperidin-4-yl}-1H-pyrazol-4-yl)-1-methyl-1H-pyrazolo[4,3-c]pyridin-3-yl]-2-[(1S)-1-(4-fluorophenyl)ethoxy]phenyl}-1,1-difluoromethane-sulfonamide]
DC50 [1]: < 1000 nM | IC50 [2]: 1000 to 10000 nM | DC50 [3]: < 1000 nM | Kd [4]: < 10 nM

C[C@H](Oc1cc(-c2nn(C)c3c(-c4cnn(C5CCN(C(=O)C6CC7(C6)CN(c6cccc8c6C(=O)N(C6CCC(=O)NC6=O)C8=O)C7)CC5)c4)cnc(N)c23)ccc1NS(=O)(=O)C(F)F)c1ccc(F)cc1 (stereo partly drawn) [Compound 1074, N-(4-{4-amino-7-[1-(1-{2-[2-(2,6-dioxopiperidin-3-yl)-1,3-dioxo-2,3-dihydro-1H-isoindol-4-yl]-2-azaspiro[3.3]heptane-6-carbonyl}piperidin-4-yl)-1H-pyrazol-4-yl]-1-methyl-1H-pyrazolo[4,3-c]pyridin-3-yl}-2-[(1S)-1-(4-fluorophenyl)ethoxy]phenyl)-1,1-difluoromethanesulfonamide]
DC50 [1]: < 1000 nM | IC50 [2]: < 1000 nM | DC50 [3]: < 1000 nM | Kd [4]: 10 to 1000 nM

C[C@H](Oc1cc(-c2nn(C)c3c(-c4cnn(C5CCN(CCc6ccc7c(c6)C(=O)N(C6CCC(=O)NC6=O)C7=O)CC5)c4)cnc(N)c23)ccc1NS(=O)(=O)C(F)F)c1ccc(F)cc1 (stereo partly drawn) [Compound 1123, N-(4-{4-amino-7-[1-(1-{2-[2-(2,6-dioxopiperidin-3-yl)-1,3-dioxo-2,3-dihydro-1H-isoindol-5-yl]ethyl}piperidin-4-yl)-1H-pyrazol-4-yl]-1-methyl-1H-pyrazolo[4,3-c]pyridin-3-yl}-2-[(1S)-1-(4-fluorophenyl)ethoxy]phenyl)-1,1-difluoromethanesulfonamide]
DC50 [1]: < 1000 nM | IC50 [2]: < 1000 nM | DC50 [3]: < 1000 nM | Kd [4]: < 10 nM

C[C@H](Oc1cc(-c2nn(C)c3c(-c4cnn(C5CCN(C(=O)CC6CN(c7cccc8c7C(=O)N(C7CCC(=O)NC7=O)C8=O)CCO6)CC5)c4)cnc(N)c23)ccc1NS(=O)(=O)C(F)F)c1ccc(F)cc1 (stereo partly drawn) [Compound 1081, N-[4-(4-amino-7-{1-[1-(2-{4-[2-(2,6-dioxopiperidin-3-yl)-1,3-dioxo-2,3-dihydro-1H-isoindol-4-yl]morpholin-2-yl}acetyl)piperidin-4-yl]-1H-pyrazol-4-yl}-1-methyl-1H-pyrazolo[4,3-c]pyridin-3-yl)-2-[(1S)-1-(4-fluorophenyl)ethoxy]phenyl]-1,1-difluoromethanesulfonamide]
DC50 [1]: < 1000 nM | IC50 [2]: < 1000 nM | DC50 [3]: < 1000 nM | Kd [4]: < 10 nM

C[C@H](Oc1cc(-c2nn(C)c3c(-c4cnn(C5CCC(C(=O)N6CCN(c7cccc8c7C(=O)N(C7CCC(=O)NC7=O)C8=O)CC6)N(C)C5)c4)cnc(N)c23)ccc1NS(=O)(=O)C(F)F)c1ccc(F)cc1 (stereo partly drawn) [Compound 1121, N-(4-{4-amino-7-[1-(6-{4-[2-(2,6-dioxopiperidin-3-yl)-1,3-dioxo-2,3-dihydro-1H-isoindol-4-yl]piperazine-1-carbonyl}-1-methylpiperidin-3-yl)-1H-pyrazol-4-yl]-1-methyl-1H-pyrazolo[4,3-c]pyridin-3-yl}-2-[(1S)-1-(4-fluorophenyl)ethoxy]phenyl)-1,1-difluoromethanesulfonamide]
DC50 [1]: < 1000 nM | IC50 [2]: < 1000 nM | DC50 [3]: < 1000 nM | Kd [4]: < 10 nM

C[C@H](Oc1cc(-c2nn(C)c3c(-c4cnn(C5CCN(Cc6cccc(CNc7cccc8c7C(=O)N(C7CCC(=O)NC7=O)C8=O)c6)CC5)c4)cnc(N)c23)ccc1NS(=O)(=O)C(F)F)c1ccc(F)cc1 (stereo partly drawn) [Compound 1095, N-(4-{4-amino-7-[1-(1-{[3-{{[2-(2,6-dioxopiperidin-3-yl)-1,3-dioxo-2,3-dihydro-1H-isoindol-4-yl]amino}methyl)phenyl]methyl}piperidin-4-yl)-1H-pyrazol-4-yl]-1-methyl-1H-pyrazolo[4,3-c]pyridin-3-yl}-2-[(1S)-1-(4-fluorophenyl)ethoxy]phenyl)-1,1-difluoromethane-sulfonamide]
DC50 [1]: < 1000 nM | IC50 [2]: < 1000 nM | DC50 [3]: < 1000 nM | Kd [4]: 10 to 1000 nM
